These results are taken from patent US12358904B2, “Inhibitors of TYK2” (Atomwise Inc., priority 2023, dated 2025).

Structures are written as SMILES. pIC50: −log10 of the molar value.

Series [1] is described as follows: Brain exposure pharmacokinetic study in rats. The following applies: male Sprague Dawley rats, oral gavage 10 mg/kg, plasma, CSF. The class given is in vivo, rat. How it is done:
The brain exposure of exemplary compounds, e.g., 1, 2, and 4 were evaluated in male Sprague Dawley rats after oral gavage administration at 10 mg/kg. The formulation was 5% DMSO+10% PEG400 in saline. Rats were fasted overnight with food returned 4 hours post-dose. CSF was collected by direct needle puncture into the cisterna magna.
For both rat and mouse studies, brain tissue was washed with 3 volumes of saline prior to homogenization. Brain tissue was homogenized with 3 volumes (v/w) of phosphate buffered saline. Plasma, brain homogenate, and CSF samples (rat only) were analyzed by LC-MS/MS and the concentration of test compound at each time point was determined by linear regression.
Pharmacokinetic parameters were calculated from the plasma, brain, and CSF concentrations by non-compartmental modeling using WinNonlin 8.2.

For the next series, the system named is IL-12/pSTAT4. The experiment in a line: IL-12 induced pSTAT4 assay in NK-92 cells. The class given is cell-based. As to conditions: Homo sapiens, NK92, IL-12 stimulation, read-out: Cellular potency (IL-12/pSTAT4). An outline of the steps: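 Overnight-starved NK-92 cells (20K/well) pre-incubated with compounds (1000 to 0.05 nM final) 30 min at 37 °C, then stimulated with IL-12 (10 ng/ml) for 30 min at 37 °C. Lysates assayed for pSTAT4 (Tyr693) by MSD electrochemiluminescence.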

A further series has as its target T1, TYK2-JH2 (Homo sapiens, UniProt P29597).
T1 construct: TYK JH2 enzyme mix (ChemPartnec CP20210818A-BV); purchased ChemPartner CP20210818A-BV
The experiment in a line: TYK2-JH2 HTRF binding assay (ligand efficiency). The following applies: calculated from IC50 of the TYK-JH2 binding assay (Equation 1). Summed up:
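His-tagged TYK2 JH2 (0.5 nM) preincubated 10 min at RT with compound (0.1–0.000005 μM) in 20 mM HEPES pH 7.5, 10 mM MgCl2, 0.01% Triton X-100, 1 mM DTT; then 35 nM tracer plus anti-6HIS Tb cryptate, 60 min RT. TR-FRET read (Ex340/Em495/520); IC50 converted to ligand efficiency.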

Another series concerns GM-CSF/pSTAT5. The experiment in a line: GM-CSF induced pSTAT5 assay in CellSensor irf1-bla TF-1 cells. The class given is cell-based. As to conditions: Homo sapiens, GM-CSF 1 ng/mL, read-out: Cellular selectivity (GM-CSF induced pSTAT5). How it is done: The CellSensor irf1-bla TF-1 cell line (LifeTechnologies, K1657) was cultured in RPMI 1640 Medium (Invitrogen 72400-047), 10% Fetal Bovine Serum (Invitrogen, 26400044), 1 mM Sodium pyruvate (Life Technologies, 11360039), 1% MEM NEAA (Life Technologies, 11140-035), 2 ng/ml of human recombinant GM-CSF (Fisher, PHC2015), 1% Penicillin/Streptomycin (Life Technologies, 15140-122) and 5 μg/ml of Blasticidin (ThermoFisher, A1113903).
The cell line was seeded in a T75 flask at 13×10^6 cells/50 mL in starvation medium (Opti-MEM™ I Reduced Serum Medium, no phenol red (Life Technologies, 11058-021), 1 mM Na pyruvate (Life Technologies, 11360039), 1% MEM NEAA (Life Technologies, 11140-035), and 1% Penicillin/Streptomycin (Life Technologies, 15140-122)) for 16 hours at 37° C. under 5% CO2 the day before the assay.
For the assay, CellSensor irf1-bla TF-1 cells were seeded at 30 000 cells/32 μL (starvation medium)/well in a 384-well plate.
Compounds were added on the cells in 4 μL (starvation medium)/well at 10× the final concentration. They were incubated for 30 minutes at 37° C.
Human recombinant carrier-free GM-CSF (ThermoFisher, ref PHC2015) was added to the wells in 4 μL (starvation medium)/well at 10×. The final concentration was 1 ng/mL. Control wells without GM-CSF treatment were added. Plates were incubated for 5 hours at 37° C.
6× LiveBlazer-FRET substrate (Invitrogen, K1085) was added to the wells at 8 μL/well. The substrate was prepared shortly before use by mixing 6 μL of solution A and 60 μL of solution B to 934 μL of solution C. Plates were incubated for 2.5 hours at room temperature in the dark. The plates were read on an Envision (Perkin Elmer) with an excitation at a wavelength of 409 nm and two wavelengths for the emission 520 nm and 450 nm. The ratio between the […] emission was used to calculate the IC50s.
The IC50 for the inhibition of pSTAT5 was calculated with the Xlfit software using the 4 Parameter Logistic Model or Sigmoidal Dose-Response Model (model 205).

The test system of another series is IL-6/pSTAT3. The experiment in a line: IL-6 induced pSTAT3 assay in TF-1 cells. It is filed as cell-based. The following applies: Homo sapiens, read-out: Cellular selectivity (IL-6/pSTAT3). The method, then: The following example describes the IL-6 induced pSTAT3 assay used to determine the cellular selectivity (IL-6/pSTAT3) of the TYK2 inhibitors.
TF-1 (ATCC®, CRL-2003™) cells were cultured in RPMI 1640 Medium, with GlutaMAX™ Supplement, HEPES for Cell Culture (Life Technologies, 72400047), 10% Fetal Bovine Serum (Life Technologies, 26400044), 2 ng/mL human recombinant GM-CSF (Life Technologies, PHC2013), 1 mM Sodium pyruvate (Life Technologies, 11360039), 1% MEM NEAA (Life Technologies, 11140-035), 1% Penicillin/Streptomycin (Life Technologies, 15140-122).
TF-1 (70×10^6) cells were starved overnight in T01 50 flasks (Opti-MEM™ I Reduced Serum Medium, no phenol red (Life Technologies, 11058-021), 1 mM Na pyruvate (Life Technologies, 11360039), 1% MEM NEAA (Life Technologies, 11140-035), and 1% Penicillin/Streptomycin (Life Technologies, 15140-122)) then seeded into 96-well TPP plates (150 000 cell/well) and incubated with test compounds (Final Concentration [nM] 10000-0.05) for 30 minutes at 37° C. […] Stimulation was terminated by addition of lysis buffer (MSD K150SVD) and pSTAT3 detection was measured with Phospho-STAT3 (Tyr705) Kit MSD K150SVD)) according to manufacturer's instruction. Briefly, cell lysates were added to pre-blocked plates, sealed, and shake for 1 hour at room temperature. Plates were then washed and incubated with detection antibody for 1 hour at room temperature. After washing, Read Buffer was added, and plates were read on MSD instrument (Model 1300 MSD Quickplex SQ 120).

T1 sequence (P29597 589-875 limits assumed): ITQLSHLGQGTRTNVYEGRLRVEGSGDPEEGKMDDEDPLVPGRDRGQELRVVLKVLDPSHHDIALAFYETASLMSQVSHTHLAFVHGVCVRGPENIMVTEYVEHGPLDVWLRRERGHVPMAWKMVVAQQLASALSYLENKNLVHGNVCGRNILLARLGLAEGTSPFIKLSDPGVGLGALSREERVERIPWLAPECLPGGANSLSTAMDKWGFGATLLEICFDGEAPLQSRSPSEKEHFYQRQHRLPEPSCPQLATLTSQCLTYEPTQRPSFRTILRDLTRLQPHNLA

Regarding `C[C@@H](c1ccc(Nc2cc(Nc3ncccc3S(C)(=O)=O)ncn2)nc1)N1CC2(COC2)C1` [Compound 1, (S)—N^4-(5-(1-(2-oxa-6-azaspiro[3.3]heptan-6-yl)ethyl)73yridine-2-yl)-N^6-(3-(methylsulfonyl)73yridine-2-yl)pyrimidine-4,6-diamine], the “Brain Kpu, u” value in series [1] is on record as “†† (†† 0.1-0.2u)”. Besides, the results for the pIC50 in the series with IL-12/pSTAT4, in the series on GM-CSF/pSTAT5 and in the series with IL-6/pSTAT3 were greater than 7.00, 5.00 to 5.40 and less than 5.00, respectively. Moreover, on TYK2-JH2, the “Ligand Efficiency” value is “††† (†††: >0.39)”.

As for `C[C@@H](c1ccc(Nc2cc(Nc3ncc(F)cc3S(C)(=O)=O)ncn2)nc1)N1CC2(COC2)C1` [Compound 2, (S)—N^4-(5-(1-(2-oxa-6-azaspiro[3.3]heptan-6-yl)ethyl)75yridine-2-yl)-N^6-(5-fluoro-3-(methylsulfonyl)75yridine-2-yl)pyrimidine-4,6-diamine], in series [1], the “Brain Kpu, u” value is listed as “† († <0.1u)”. The pIC50 is greater than 7.00 in the series with IL-12/pSTAT4, less than 5.00 with GM-CSF/pSTAT5 and less than 5.00 with IL-6/pSTAT3. For the same molecule, the “Ligand Efficiency” value at TYK2-JH2 is listed as “††† (†††: >0.39)”.

As for `C[C@H]1CN(C2CC2)CCN1c1ccc(Nc2cc(Nc3ncccc3S(C)(=O)=O)ncn2)nc1` [Compound 8, (S)—N^4-(5-(4-cyclopropyl-2-methylpiperazin-1-yl)85yridine-2-yl)-N^6-(3-(methylsulfonyl)85yridine-2-yl)pyrimidine-4,6-diamine], the pIC50 was greater than 7.00 in the series on IL-12/pSTAT4, greater than 5.40 with GM-CSF/pSTAT5 and 5.00 to 5.40 in the series on IL-6/pSTAT3. Also, the “Ligand Efficiency” value on TYK2-JH2 is “††† (†††: >0.39)”.

For `Cc1ccnc(Nc2cc(Nc3ccccc3C(N)=O)ncn2)c1` [Compound 45, 2-((6-((4-methylpyridin-2-yl)amino)pyrimidin-4-yl)amino) benzamide], the pIC50 in the series with IL-12/pSTAT4 was greater than 7.00; with GM-CSF/pSTAT5, greater than 5.40; with IL-6/pSTAT3 it was greater than 5.40. For the same molecule, the “Ligand Efficiency” value at TYK2-JH2 is “††† (†††: >0.39)”.

On to `Cc1cnnc(Nc2cc(Nc3ccccc3C(N)=O)ncn2)c1` [Compound 47, 2-((6-((5-methylpyridazin-3-yl)amino)pyrimidin-4-yl)amino) benzamide], for which the pIC50 in the series with IL-12/pSTAT4 was greater than 7.00; in the series on GM-CSF/pSTAT5 it was less than 5.00; in the series on IL-6/pSTAT3, greater than 5.40. Moreover, the “Ligand Efficiency” value on TYK2-JH2 is “††† (†††: >0.39)”.

In the case of `CC(c1ccc(Nc2cc(Nc3ncccc3S(C)(=O)=O)ncn2)nc1)N1CC(F)C1` (stereo not drawn) [Compound 22, N^4-(5-(1-(3-fluoroazetidin-1-yl)ethyl)102yridine-2-yl)-N^6-(3-(methylsulfonyl)102yridine-2-yl)pyrimidine-4,6-diamine], the results for the pIC50 in the series on IL-12/pSTAT4, in the series with GM-CSF/pSTAT5 and with IL-6/pSTAT3 were greater than 7.00, less than 5.00 and 5.00 to 5.40, respectively. In addition, the “Ligand Efficiency” value at TYK2-JH2 is on record as “††† (†††: >0.39)”.

As to `Cc1cccc(Nc2cc(Nc3ccccc3C(N)=O)ncn2)n1` [Compound 46], the pIC50 with IL-12/pSTAT4 was greater than 7.00; with GM-CSF/pSTAT5, greater than 5.40; with IL-6/pSTAT3 it was greater than 5.40. Moreover, the “Ligand Efficiency” value on TYK2-JH2 is “††† (†††: >0.39)”.

As for `CS(=O)(=O)c1cccnc1Nc1cc(Nc2ccc3c(n2)CC[C@@H]3N2CC3(COC3)C2)ncn1` [Compound 9, N^4-((5S)-5-(2-oxa-6-azaspiro[3.3]heptan-6-yl)-6,7-dihydro-5H-cyclopenta[b]86yridine-2-yl)-N^6-(3-(methylsulfonyl)86yridine-2-yl)pyrimidine-4,6-diamine], the pIC50 in the series with IL-12/pSTAT4 is greater than 7.00; with GM-CSF/pSTAT5, less than 5.00; in the series on IL-6/pSTAT3, less than 5.00. The “Ligand Efficiency” value on TYK2-JH2 was “††† (†††: >0.39)”.

Consider `CC(C)(NC1COC1)c1ccc(Nc2cc(Nc3ccccc3S(C)(=O)=O)ncn2)nc1` [Compound 39, N^4-(2-(methylsulfonyl)phenyl)-N^6-(5-(2-(oxetan-3-ylamino)propan-2-yl)127yridine-2-yl)pyrimidine-4,6-diamine], for which the pIC50 is greater than 7.00 in the series with IL-12/pSTAT4, less than 5.00 with GM-CSF/pSTAT5 and less than 5.00 in the series with IL-6/pSTAT3. In addition, the “Ligand Efficiency” value at TYK2-JH2 is on record as “†† (††: 0.37-0.39)”.

On to `Cc1ccnc(Nc2cc(Nc3ccccc3S(C)(=O)=O)ncn2)c1` [Compound 44, N^4-(4-methylpyridin-2-yl)-N^6-(2-(methylsulfonyl)phenyl) pyrimidine-4,6-diamine], for which the pIC50 in the series on IL-12/pSTAT4 was greater than 7.00; in the series with GM-CSF/pSTAT5, less than 5.00; with IL-6/pSTAT3, less than 5.00. Also, at TYK2-JH2, the “Ligand Efficiency” value was “††† (†††: >0.39)”.

Take `CC(c1ccc(Nc2cc(Nc3ncccc3S(C)(=O)=O)ncn2)nc1)N1CC2(CC(F)C2)C1` (stereo in doubt) [Compound 10, N^4-(5-((1R)-1-(6-fluoro-2-azaspiro[3.3]heptan-2-yl)ethyl) 87yridine-2-yl)-N^6-(3-(methylsulfonyl)87yridine-2-yl)pyrimidine-4,6-diamine]: the values for the pIC50 in the series on IL-12/pSTAT4, with GM-CSF/pSTAT5 and in the series with IL-6/pSTAT3 were greater than 7.00, less than 5.00 and 5.00 to 5.40, respectively. At TYK2-JH2, the “Ligand Efficiency” value is recorded as “††† (†††: >0.39)”.

Take `COc1cnc(Nc2cc(Nc3ccc([C@H](C)N4CC5(COC5)C4)cn3)ncn2)c(S(C)(=O)=O)c1` [Compound 3, (S)—N^4-(5-(1-(2-oxa-6-azaspiro[3.3]heptan-6-yl)ethyl)pyridine-2-yl)-N^6-(5-methoxy-3-(methylsulfonyl)77yridine-2-yl)pyrimidine-4,6-diamine]: the pIC50 with IL-12/pSTAT4 was greater than 7.00; in the series with GM-CSF/pSTAT5, less than 5.00; with IL-6/pSTAT3 it was 5.00 to 5.40. Moreover, the “Ligand Efficiency” value on TYK2-JH2 is listed as “†† (††: 0.37-0.39)”.

`CS(=O)(=O)c1ccccc1Nc1cc(Nc2ccc3c(n2)CCCC3N2CC3(CCOCC3)C2)ncn1` (stereo not drawn) [Compound 27, N^4-(5-(7-oxa-2-azaspiro[3.5]nonan-2-yl)-5,6,7,8-tetrahydroquinolin-2-yl)-N^6-(2-(methylsulfonyl)phenyl)pyrimidine-4,6-diamine]: the pIC50 in the series with IL-12/pSTAT4 was greater than 7.00; with GM-CSF/pSTAT5, less than 5.00; with IL-6/pSTAT3, less than 5.00. Besides, the “Ligand Efficiency” value at TYK2-JH2 is “† (†: <0.37)”.
